Source: patent US8343990B2, “Substituted cyclopropyl compounds, compositions containing such compounds and methods of treatment” (Merck Sharp & Dohme Corp., priority 2008, dated 2013)

Target: T1, GPR119 receptor (UniProt Q8TDV5, S309L, species not given)
T1 sequence (Q8TDV5 1-335 S309L): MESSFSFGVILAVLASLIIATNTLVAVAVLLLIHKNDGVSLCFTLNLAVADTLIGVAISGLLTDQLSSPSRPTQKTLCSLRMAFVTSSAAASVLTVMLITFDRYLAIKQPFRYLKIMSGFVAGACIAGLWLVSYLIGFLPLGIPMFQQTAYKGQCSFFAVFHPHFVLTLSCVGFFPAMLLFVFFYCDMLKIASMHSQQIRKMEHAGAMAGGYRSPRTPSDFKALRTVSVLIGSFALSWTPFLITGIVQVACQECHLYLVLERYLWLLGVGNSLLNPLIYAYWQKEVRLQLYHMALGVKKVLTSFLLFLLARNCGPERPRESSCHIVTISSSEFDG
Assay: GPR119 signaling, cyclic AMP (cAMP) homogenous time resolved fluorescence (HTRF) assay
Assay type: cell-based
Settings: CHO cells with Gα15 and murine GPR119, or HEK293 Flp-In cells with human GPR119 S309L; table does not say which; read-out: Activity: inflection points, denoted as EC50 values (agonist activation of GPR119, cAMP)
Description: Measurement of GPR119 Signaling Using a Cyclic AMP (cAMP) Homogenous Time Resolved Fluorescence (HTRF) Assay
Chinese hamster ovary (CHO) cell lines stably transfected with the permissive guanine nucleotide binding protein alpha 15 (Gα15) and […] GPR119 were maintained in DMEM media containing FBS, penicillin-streptomycin, puromycin, and G418 (geneticin). Alternatively, human embryonic kidney (HEK)293 Flp-In cells (Invitrogen, Carlsbad, Calif.) were stably transfected with a human SNP variant (S309L) of GPR119 and maintained in DMEM media containing FBS, penicillin-streptomycin, and hygromycin. Agonist activation of the GPR119 receptor was measured in receptor transfected cells described above, treated with compounds of this invention, using a commercial homogenous time resolved fluorescence (HTRF) kit for measurement of cAMP (CisBio, Bedford, Mass.). The assay was performed in 96-well half-volume plates (murine) or 384-well plates (human) following the manufacturers instructions. Briefly, suspended cells were incubated with a dose titration of test compound at room temperature for 60 min, lysed, and incubated with HTRF reagents for an additional 60 min. The plate was read using an Envision multilabel reader (Perkin Elmer) adjusted to read time resolved fluorescence and the cAMP concentrations were extrapolated from a cAMP calibration curve. […] The concentration of test compound required to stimulate a half-maximal response (EC50), and efficacy as compared to an internal agonist control, was determined from a sigmoidal 4-parameter curve fit of the resulting plot of normalized activity versus compound concentration.

EC50 [nM] | Structure (SMILES)
< 10 | Clc1cnc(N2CCC(C3CC3CCOc3ccc(-n4cnnn4)cc3)CC2)nc1 (single isomer, unassigned) [Ex 83cF, cis-5-chloro-2-[4-(2-{2-[4-(1H-tetrazol-1-yl)phenoxy]ethyl}cyclopropyl)piperidin-1-yl]pyrimidine]
< 10 | Cc1nnc(-c2ccc(OCC[C@H]3C[C@H]3C3CCN(c4ncc(Cl)c(C)n4)CC3)cc2F)o1 (racemic) [Ex 87, Rac-cis-5-chloro-2-[4-(2-{2-[3-fluoro-4-(5-methyl-1,3,4-oxadiazol-2-yl)phenoxy]ethyl}cyclopropyl)piperidin-1-yl]-4-methylpyrimidine]
< 10 | C[S+]([O-])c1ccc(OCCC2CC2C2CCN(c3ncc(Cl)cn3)CC2)cc1 (single isomer, unassigned) [Ex 33, Chiral-cis-5-chloro-2-[4-(2-{2-[4-(methylsulfinyl)phenoxy]ethyl}cyclopropyl)piperidin-1-yl]pyrimidine]
< 10 | Cc1nnc(-c2ccc(OCCC3CC3C3CCN(c4ncc(Cl)cn4)CC3)cc2F)o1 (racemic) [Ex 32, rac cis-5-chloro-2-[4-(2-{2-[3-fluoro-4-(5-methyl-1,3,4-oxadiazol-2-yl)phenoxy]ethyl}cyclopropyl)piperidin-1-yl]pyrimidine]
50 to 200 | CS(=O)(=O)c1ccc(OC[C@@H]2C[C@H]2CC2CCN(c3ncc(Cl)cn3)CC2)cc1 (racemic) [Ex 101, rac-trans-5-chloro-2-{4-[(2-{[4-(methylsulfonyl)phenoxy]methyl}cyclopropyl)methyl]piperidin-1-yl}pyrimidine]
> 200 | Cc1nnc(-c2ccc(OCC[C@H]3C[C@H]3C3CCN(c4ncc(Cl)cc4Cl)CC3)cc2F)o1 (racemic) [Ex 88, Rac-cis-3,5-dichloro-2-[4-(2-{2-[3-fluoro-4-(5-methyl-1,3,4-oxadiazol-2-yl)phenoxy]ethyl}cyclopropyl)piperidin-1-yl]pyridine]
50 to 200 | Clc1cnc(N2CCC(C3CC3CCOc3ccc(-c4ncon4)cc3)CC2)nc1 (racemic) [Ex 17, rac cis-5-chloro-2-[4-(2-{2-[4-(1,2,4-oxadiazol-3-yl)phenoxy]ethyl}cyclopropyl)piperidin-1-yl]pyrimidine]
< 10 | N#Cc1cc(OCC[C@@H]2C[C@@H]2C2CCN(c3ncc(Cl)cn3)CC2)ncn1 (racemic) [Ex 37, Rac-cis-6-(2-{2-[1-(5-chloropyrimidin-2-yl)piperidin-4-yl]cyclopropyl}ethoxy)pyrimidine-4-carbonitrile]
< 10 | Fc1cnc(N2CCC(C3CC3CCOc3ccc(-n4cnnn4)c(F)c3)CC2)nc1 (racemic) [Ex 30d]
< 10 | Cc1nnc(-c2ccc(OCCC3CC3C3CCN(c4ncc(F)cn4)CC3)cc2F)o1 (single isomer, unassigned) [Ex 83eS, cis-5-fluoro-2-[4-(2-{2-[3-fluoro-4-(5-methyl-1,3,4-oxadiazol-2-yl)phenoxy]ethyl}cyclopropyl)piperidin-1-yl]pyrimidine]
< 10 | O=C(NC1CC1)c1ccc(OCCC2CC2C2CCN(c3ncc(Cl)cn3)CC2)cc1F (racemic) [Ex 11, rac cis-4-(2-{2-[1-(5-chloropyrimidin-2-yl)piperidin-4-yl]cyclopropyl}ethoxy)-N-cyclopropyl-2-fluorobenzamide]
< 10 | Cc1nc(C#N)cc(OCCC2CC2C2CCN(c3ncc(Cl)cn3)CC2)n1 (single isomer, unassigned) [Ex 34, Chiral-cis-6-(2-{2-[1-(5-chloropyrimidin-2-yl)piperidin-4-yl]cyclopropyl}ethoxy)-2-methylpyrimidine-4-carbonitrile]
> 200 | Cc1nnc(-c2cccc(OCCC3CC3C3CCN(c4ncc(Cl)cn4)CC3)c2)o1 (racemic) [Ex 8, rac cis-5-chloro-2-[4-(2-{2-[3-(5-methyl-1,3,4-oxadiazol-2-yl)phenoxy]ethyl}cyclopropyl)piperidin-1-yl]pyrimidine]
